Data reported in patent US5919781A, “Use of NK-1 receptor antogonists for treating substance use disorders” (Merck Sharp & Dohme Ltd., priority 1996, dated 1999).
Where two headings read alike, the source gives them in different places.

Legend:
[1] = tested on: cisplatin-induced emesis in ferrets; experiment: Ferret emesis (Assay 3), inhibition of cisplatin-induced emesis; format: in vivo; conditions: Mustela putorius, po, 60 minutes before cisplatin 10 mg/kg i.v.; 4 hours observation; read-out: ferret emesis: ID90
Method: ASSAY 3: Ferret Emesis […] Ten minutes later they are fed with approximately 100 g of tinned cat food. At 60 minutes following oral dosing, cisplatin (10 mg/kg) is given i.v. via a jugular vein catheter inserted under a brief period of halothane anaesthesia. The catheter is then removed, the jugular vein ligated and the skin incision closed. The ferrets recover rapidly from the anaesthetic and are mobile within 10-20 minutes. The animals are observed continuously during recovery from the anaesthetic and for 4 hours following the cisplatin injection. The numbers of retches and vomits occurring during the 4 hours after cisplatin administration are recorded by trained observers.

NK-1 receptor = target: T1, NK-1 receptor (Meriones unguiculatus, UniProt Q5DUB1); experiment: Gerbil foot-tapping (Assay 2), inhibition of foot tapping induced by central infusion of NK-1 receptor agonist GR73632; format: in vivo, Mongolian gerbils; conditions: iv
T1 construct: male or female Mongolian gerbils (35-70 g) are anaesthetised; from tissue; host or cells: brain of the living Mongolian gerbil (in vivo, agonist infused intracerebroventricularly)
From the text: ASSAY 2: Gerbil Foot-Tapping
CNS-penetrant NK-1 receptor antagonists for use in the present invention can be identified by their ability to inhibit foot tapping in gerbils induced by anxiogenic agents (such as pentagastrin) or central infusion of NK-1 receptor agonists such as GR73632, or caused by aversive stimulation such as foot shock or single housing, based on the method of Rupniak & Williams, Eur. J. Pharmacol., 1994, 265, 179.
Briefly, male or female Mongolian gerbils (35-70 g) are anaesthetised by inhalation of an isoflurane/oxygen mixture to permit exposure of the jugular vein in order to permit administration of test compounds or vehicle in an injection volume of 5 ml/kg i.v. Alternatively, test compounds may be administered orally or by subcutaneous or intraperitoneal routes. A skin incision is then made in the midline of the scalp to expose the skull. […]

[2] = tested on: morphine withdrawal response in guinea-pigs; conditions: systemic administration, only high doses active, Chahl & Johnston, 1992; cited from earlier work
[3] = tested on: naloxone-precipitated withdrawal signs in rats; conditions: central (i.c.v.) injection; rats receiving morphine for five days; Maldonado et al, 1993; cited from earlier work

T1 sequence (Q5DUB1 whole entry, the tested form may be a part): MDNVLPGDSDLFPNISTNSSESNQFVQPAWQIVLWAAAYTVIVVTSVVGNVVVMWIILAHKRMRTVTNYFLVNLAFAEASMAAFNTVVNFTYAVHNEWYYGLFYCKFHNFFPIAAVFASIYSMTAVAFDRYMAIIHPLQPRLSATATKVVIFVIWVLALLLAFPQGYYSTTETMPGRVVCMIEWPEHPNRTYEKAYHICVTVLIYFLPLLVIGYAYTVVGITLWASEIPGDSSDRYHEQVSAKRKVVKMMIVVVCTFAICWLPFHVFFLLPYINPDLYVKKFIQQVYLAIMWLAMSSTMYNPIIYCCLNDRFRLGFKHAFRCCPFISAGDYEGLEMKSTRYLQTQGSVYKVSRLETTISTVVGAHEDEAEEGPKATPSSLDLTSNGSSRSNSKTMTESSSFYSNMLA

C[C@@H](O[C@H]1OCCN(Cc2n[nH]c(=O)[nH]2)[C@H]1c1ccc(F)cc1)c1cc(C(F)(F)F)cc(C(F)(F)F)c1 [2-(R)-(1-(R)-(3,5-bis(trifluoromethyl)phenyl)ethoxy)-3-(S)-(4-fluorophenyl)-4-(3-(5-oxo-1H,4H-1,2,4-triazolo)methyl)morpholine]
ED90 [1]: < 3 mg/kg
ED50 (NK-1 receptor; 5 min, i.v., 5 mins., administered immediately prior to GR73632 challenge, read-out: gerbil foot-tapping (5 mins.): ID50): 0.36 mg/kg
ED50 (NK-1 receptor; 24 hours prior to central NK1 agonist challenge, read-out: gerbil foot-tapping (24 hrs.): ID50): 0.33 mg/kg

COc1ccccc1CNC1C2CCN(CC2)C1C(c1ccccc1)c1ccccc1 (centres unmarked) [CP-96,345]
doses active in blocking the withdrawal response [2]: 20 mg/kg

COc1ccccc1CC(=N)N1CC2C(=O)CCC(c3ccccc3)(c3ccccc3)C2C1 (centres unmarked) [RP67580]
attenuation of naloxone-precipitated withdrawal signs [3]: could attenuate naloxone-precipitated withdrawal signs
